Experimental data from ChEMBL document CHEMBL1136195, “Inhibition of Src kinase activity by 4-anilino-5,10-dihydro-pyrimido[4,5-b]quinolines” (Bioorg Med Chem Lett, 2003).

Tests used:
[1] = biological target: T1, Proto-oncogene tyrosine-protein kinase Src (Homo sapiens, UniProt P12931); assay: (§1) Inhibition of Src protein tyrosine kinase
[2] = biological target: T1, Proto-oncogene tyrosine-protein kinase Src; assay: as §1; conditions: concentration not given here

T1 sequence (P12931 2-536 limits assumed): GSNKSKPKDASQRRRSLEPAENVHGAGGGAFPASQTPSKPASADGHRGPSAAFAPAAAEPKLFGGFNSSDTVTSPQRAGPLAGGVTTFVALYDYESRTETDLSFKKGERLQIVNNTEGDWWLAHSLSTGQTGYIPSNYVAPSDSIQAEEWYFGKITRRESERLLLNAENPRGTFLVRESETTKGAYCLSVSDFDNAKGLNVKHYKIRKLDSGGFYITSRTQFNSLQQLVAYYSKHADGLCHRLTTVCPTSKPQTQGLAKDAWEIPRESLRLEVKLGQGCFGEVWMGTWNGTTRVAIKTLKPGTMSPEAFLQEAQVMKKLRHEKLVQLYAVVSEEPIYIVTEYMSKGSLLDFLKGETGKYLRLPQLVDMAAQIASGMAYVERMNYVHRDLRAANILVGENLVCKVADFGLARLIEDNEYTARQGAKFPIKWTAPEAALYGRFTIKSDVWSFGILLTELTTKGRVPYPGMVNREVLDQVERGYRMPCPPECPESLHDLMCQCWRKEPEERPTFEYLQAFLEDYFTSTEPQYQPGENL

IC50 [1] [nM] | inhibition [2] [%] | Compound
2.3 | – | COCCOc1cc2c(cc1OC)Cc1c(Nc3cc(OC)c(Cl)cc3Cl)ncnc1N2
3.3 | – | COc1cc(Nc2ncnc3c2Cc2cc(OC)c(OC)cc2N3)c(Cl)cc1Cl
30 | – | COc1cc2ncc(C#N)c(Nc3ccc(Cl)cc3Cl)c2cc1OC

Further lines, the molecule ahead of its results:

Compound | IC50 [1] [nM] | inhibition [2] [%]
COCCOc1cc2c(cc1OC)Cc1c(Nc3ccc(Cl)cc3Cl)ncnc1N2 | 16 | –
COc1cc(Nc2ncnc3nc4cc(OC)c(OC)cc4cc23)c(Cl)cc1Cl | > 10000 | –
COCCOc1cc2nc3ncnc(Nc4cc(OC)c(Cl)cc4Cl)c3cc2cc1OC | – | 35
COc1cc(Nc2c(C#N)cnc3cc(OC)c(OC)cc23)c(Cl)cc1Cl | 4.3 | –
COCCOc1cc2c(cc1OC)Nc1ncnc(Nc3cc(OC)c(Cl)cc3Cl)c1C2 | 9.8 | –
